We go through 16 compounds from patent US20100210654A1, “NOVEL P2Y12 RECEPTOR ANTAGONISTS” (RHEINISCHE FRIEDRICH-WILHELMS UNIVERSITÄT BONN, priority 2007, published 2010).

The structures appear in SMILES notation.

Series [1] has as its target T1, P2Y12 (Homo sapiens, UniProt Q9H244). The series is described as follows: GTP shift experiments (radioligand binding in presence and absence of GTP). More on the design: Membranes were prepared from human outdated platelets from the blood bank; from tissue; host or cells: human platelets (University of Bonn blood bank), membrane preparation. To be noted: presence and absence of GTP (100 μM); no shift = antagonist rather than agonist. The method, then: (§1) Radioligand binding assays were performed using 5 nM [^3H]PSB-0413 and 100 μg of protein in Tris-HCl buffer 50 mM, pH 7.4, as previously described. (El-Tayeb, A., Griessmeier, K. J, Müller, C. E. Bioorg. Med. Chem. Lett. 2005, 15, 5450-52; Atzler, K. Doctoral Thesis, University of Bonn, 2006). Competition by 10 μM of test compound was initially determined. The mixture was incubated for 1 h at rt followed by filtration through GF/B filters. Nonspecific binding was determined with 1 mM ADP or 250 μM RB 2. […] At least three independent experiments were performed each in triplicate.
Selected compounds were investigated for their functionality in GTP shift experiments. Radioligand binding studies as described above were performed in the presence and absence of GTP (100 μM).
Target sequence in this assay (Q9H244 whole entry): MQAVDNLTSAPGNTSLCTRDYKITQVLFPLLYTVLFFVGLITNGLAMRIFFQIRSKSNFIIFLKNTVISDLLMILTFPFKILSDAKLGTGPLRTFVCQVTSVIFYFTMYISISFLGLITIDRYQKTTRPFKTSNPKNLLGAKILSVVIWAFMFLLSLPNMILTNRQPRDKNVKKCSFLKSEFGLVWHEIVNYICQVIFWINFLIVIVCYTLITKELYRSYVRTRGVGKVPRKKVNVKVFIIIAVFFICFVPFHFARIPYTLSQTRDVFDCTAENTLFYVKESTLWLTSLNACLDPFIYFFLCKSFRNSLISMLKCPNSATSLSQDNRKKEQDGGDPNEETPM

For series [2], the target named is T2, human platelet P2Y12 receptors (Homo sapiens, UniProt Q9H244).
T2 construct: Membranes were prepared from human outdated platelets from the blood bank; from tissue; host or cells: human platelets (University of Bonn blood bank), membrane preparation
T2 sequence (Q9H244 whole entry): as above
The series is described as follows: Radioligand binding assay with [3H]PSB-0413 at human platelet membranes. The note with it: human platelet membranes, 5 nM [3H]PSB-0413, 1 h at rt; mean ± SEM; read-out: hP2Y12 Receptor Ki [μM ± SEM] vs. [3H]PSB-0413. The protocol:
Membranes were prepared from human outdated platelets from the blood bank. Outdated human platelets were obtained from the University of Bonn blood bank 4-5 days after donation. Platelet rich plasma was washed by centrifugation (10 min at 1000 g) in a buffer consisting of 50 mM Tris-HCl, pH 7.4, 5 mM EDTA and 150 mM NaCl. The supernatant was centrifuged twice (48400 g for 60 min) and the resultant platelet pellet were resuspended in 5 mM Tris-HCl (pH 7.4) containing 5 mM EDTA. The platelets were homogenized by a homogenizer. The final suspension was stored frozen as multiple aliquots at −80° C. until needed. Protein concentrations were determined by the method of Lowry using a Sigma Chemie protein assay kit.
as §1
(§2) The data were analyzed using GraphPad Prism 4.0 (GraphPad Software, Inc., San Diego, Calif.).

The next series has as its target hP2Y4 Receptor (Homo sapiens, UniProt P51582). In words: Inhibition of agonist-induced calcium mobilization, recombinant receptor in human astrocytoma cells. It counts as cell-based. To be noted: mean ± SEM. The protocol: (§3) Inhibition of agonist-induced calcium mobilization was determined as previously described (Kaulich M. et al, Drug Dev. Res. 2003, 59, 72-81) using NG108-15 cells for the mouse P2Y2 receptor, or human recombinant P2Y receptors stably expressed in human astrocytoma cells (El-Tayeb, A. et al., J. Med. Chem. 2006, 49, 7076-87).
as §2
A general note: A change in cytosolic calcium serves as a functional read-out for many receptors and channels.

The next series addresses rP2Y6 Receptor (Rattus norvegicus, UniProt Q63371). The series is described as above. The format is cell-based. To be noted: mean ± SEM. The protocol: as §3, §2
Another series addresses mouse P2Y2 receptor (Mus musculus, UniProt P35383). In words: Inhibition of agonist-induced calcium mobilization in NG108-15 cells. The format is cell-based. To be noted: mean ± SEM, read-out: mP2Y2 Receptor IC50 (μM ± SEM). The protocol:
as §3, §2

In another series the target is T3, hP2Y2 Receptor (Homo sapiens, UniProt P41231).
T3 construct: expressed in transfected cells; host or cells: human astrocytoma cells
T3 sequence (P41231 whole entry): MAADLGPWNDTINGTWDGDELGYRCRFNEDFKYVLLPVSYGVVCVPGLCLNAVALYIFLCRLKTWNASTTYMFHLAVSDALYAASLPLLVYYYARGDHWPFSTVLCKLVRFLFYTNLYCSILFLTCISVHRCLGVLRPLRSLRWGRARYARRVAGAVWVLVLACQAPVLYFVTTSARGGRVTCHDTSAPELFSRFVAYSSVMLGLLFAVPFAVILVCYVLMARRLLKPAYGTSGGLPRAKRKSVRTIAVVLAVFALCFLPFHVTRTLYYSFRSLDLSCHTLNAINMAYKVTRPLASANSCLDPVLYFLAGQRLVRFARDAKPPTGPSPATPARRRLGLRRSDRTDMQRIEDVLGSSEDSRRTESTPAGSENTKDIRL
The series is described as follows: Inhibition of agonist-induced calcium mobilization, recombinant receptor in human astrocytoma cells. To be noted: mean ± SEM. It counts as cell-based. The method, then: as §3, §2

Series [3] addresses T1, P2Y12. The note with it: recent review article (Abbracchio et al. 2006); read-out: Ki value as P2Y12 antagonist; cited from earlier work.
Target sequence in this assay (Q9H244 whole entry, species assumed): as the sequence (Q9H244 whole entry) above

mouse P2Y2 receptor, sequence (P35383 whole entry): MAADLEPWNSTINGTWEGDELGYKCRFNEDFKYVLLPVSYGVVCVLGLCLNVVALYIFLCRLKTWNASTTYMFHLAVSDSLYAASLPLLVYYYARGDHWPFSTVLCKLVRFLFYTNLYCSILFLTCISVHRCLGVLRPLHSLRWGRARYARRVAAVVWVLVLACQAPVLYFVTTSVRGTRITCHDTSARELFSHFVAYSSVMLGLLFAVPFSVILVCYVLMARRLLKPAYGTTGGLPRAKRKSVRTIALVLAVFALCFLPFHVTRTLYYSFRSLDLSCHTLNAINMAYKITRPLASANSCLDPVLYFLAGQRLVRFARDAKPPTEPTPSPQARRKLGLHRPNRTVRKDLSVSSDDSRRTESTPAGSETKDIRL
hP2Y4 Receptor, sequence (P51582 whole entry): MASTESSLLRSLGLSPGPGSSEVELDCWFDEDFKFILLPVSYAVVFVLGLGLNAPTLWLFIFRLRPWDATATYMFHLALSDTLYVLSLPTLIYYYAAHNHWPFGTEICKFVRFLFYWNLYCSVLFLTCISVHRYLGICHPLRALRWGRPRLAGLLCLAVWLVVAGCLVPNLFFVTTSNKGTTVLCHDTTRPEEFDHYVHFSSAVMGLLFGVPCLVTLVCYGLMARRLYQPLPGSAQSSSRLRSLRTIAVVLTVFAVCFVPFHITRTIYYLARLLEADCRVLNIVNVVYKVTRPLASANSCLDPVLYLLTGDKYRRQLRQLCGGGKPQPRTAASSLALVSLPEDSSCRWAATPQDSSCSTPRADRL
rP2Y6 Receptor, sequence (Q63371 whole entry): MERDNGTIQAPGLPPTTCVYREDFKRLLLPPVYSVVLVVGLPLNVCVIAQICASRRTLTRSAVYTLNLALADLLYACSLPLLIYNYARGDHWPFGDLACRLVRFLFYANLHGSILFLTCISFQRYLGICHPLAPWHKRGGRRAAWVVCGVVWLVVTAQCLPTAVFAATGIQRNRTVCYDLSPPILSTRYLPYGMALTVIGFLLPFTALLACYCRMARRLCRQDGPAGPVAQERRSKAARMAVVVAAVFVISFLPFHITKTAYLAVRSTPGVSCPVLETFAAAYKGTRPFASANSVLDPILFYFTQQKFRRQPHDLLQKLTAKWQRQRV

Turning to `Nc1ncnc2c1ncn2[C@@H]1O[C@H](COP(=O)(O)OP(=O)(O)O)[C@@H](O)[C@H]1O` [ADP, reference compound], the “right-shift of the concentration-inhibition curve in GTP shift experiments” value at P2Y12 [1] is “significant right-shift”.

On to `Nc1c(S(=O)(=O)O)cc(Nc2cccc(S(=O)(=O)O)c2)c2c1C(=O)c1ccccc1C2=O` [Entry 1], for which the inhibition constant (Ki) – broadly, the dissociation constant of the complex between target and ligand, obtained from inhibition or displacement – in series [2] was 3.81 ± 1.08 µM. Also, the results for the half-maximal inhibitory concentration (IC50) on hP2Y4 Receptor and at rP2Y6 Receptor were 18.5 ± 2.5 µM and about 100 µM, respectively.

As to `Nc1ccc(Nc2cc(S(=O)(=O)O)c(N)c3c2C(=O)c2ccccc2C3=O)cc1S(=O)(=O)O` [Entry 5], the Ki in series [2] was found to be 2.39 ± 0.65 µM. Moreover, the values for the half-inhibitory concentration (IC50) at hP2Y4 Receptor and at rP2Y6 Receptor were 11 ± 3 µM and 24.3 ± 3.4 µM, respectively.

With `Nc1c(S(=O)(=O)O)cc(Nc2ccc(Cl)cc2)c2c1C(=O)c1ccccc1C2=O` [Entry 15], the Ki in series [2] was 7.35 ± 1.72 µM. Further, the IC50 – broadly, the concentration that gives 50% inhibition – is 20 ± 7 µM on mouse P2Y2 receptor, 4.46 ± 0.75 µM at hP2Y2 Receptor, over 3 µM at hP2Y4 Receptor and over 10 µM on rP2Y6 Receptor.

On to `Nc1c(S(=O)(=O)O)cc(Nc2ccccc2)c2c1C(=O)c1ccccc1C2=O` [Entry 17], for which the inhibition constant Ki in series [2] was determined as 9.83 ± 2.43 µM. Also, the IC50 was determined as 11.1 ± 3 µM on mouse P2Y2 receptor and 5.61 ± 0.47 µM at hP2Y2 Receptor.

On to `Nc1c(S(=O)(=O)O)cc(Nc2ccc(Nc3ccccc3)cc2)c2c1C(=O)c1ccccc1C2=O` [Entry 18], for which, in series [2], the Ki turned out to be 1.85 ± 0.57 µM. The IC50 was 30 ± 7 µM on mouse P2Y2 receptor, over 3 µM on hP2Y4 Receptor and over 1 µM on rP2Y6 Receptor.

With `COc1ccc(CCNc2cc(S(=O)(=O)O)c(N)c3c2C(=O)c2ccccc2C3=O)cc1OC` [Entry 21], the results for the IC50 on hP2Y4 Receptor and at rP2Y6 Receptor were over 30 µM and over 100 µM, respectively.

`Nc1c(S(=O)(=O)O)cc(Nc2cccc3ccccc23)c2c1C(=O)c1ccccc1C2=O` [Entry 25]: the IC50 at mouse P2Y2 receptor was 10.7 ± 1 µM; on hP2Y2 Receptor, 6.67 ± 0.32 µM; on hP2Y4 Receptor it was 10.1 ± 1.4 µM; at rP2Y6 Receptor it was 26.7 µM.

For the compound `Nc1c(S(=O)(=O)O)cc(Nc2cccc(Cl)c2)c2c1C(=O)c1ccccc1C2=O` [Entry 27], the Ki in series [2] was determined as 6.76 ± 2.07 µM. Moreover, the IC50 at hP2Y2 Receptor is 24.5 ± 10.4 µM; on hP2Y4 Receptor, over 3 µM; on rP2Y6 Receptor, over 100 µM.

As for `Nc1c(S(=O)(=O)O)cc(Nc2cccc([N+](=O)[O-])c2)c2c1C(=O)c1ccccc1C2=O` [Entry 28], the 50% inhibitory concentration (IC50) at hP2Y2 Receptor amounted to 7.52 ± 0.82 µM.

In the case of `Nc1c(S(=O)(=O)[O-])cc(Nc2ccc(Nc3ncccn3)c(S(=O)(=O)[O-])c2)c2c1C(=O)c1ccccc1C2=O.[Na+].[Na+]` [Entry 33], the inhibition constant (Ki) in series [2] turned out to be 0.0507 ± 0.016 µM. The half-inhibitory concentration (IC50) at hP2Y4 Receptor amounted to 9.04 ± 1.2 µM; at rP2Y6 Receptor it was 28.6 ± 2.7 µM. Moreover, the “right-shift of the concentration-inhibition curve in GTP shift experiments” value on P2Y12 [1] is “did not”.

As to `COc1nc(Cl)nc(Nc2ccc(Nc3cc(S(=O)(=O)[O-])c(N)c4c3C(=O)c3ccccc3C4=O)cc2S(=O)(=O)[O-])n1.[Na+].[Na+]` [Entry 37], the inhibition constant (Ki) in series [2] was 0.66 ± 0.12 µM. In addition, the “right-shift of the concentration-inhibition curve in GTP shift experiments” value at P2Y12 [1] is “did not”.

As to `Cc1c(N)cccc1Nc1cc(S(=O)(=O)[O-])c(N)c2c1C(=O)c1ccccc1C2=O.[Na+]` [Example 24, Sodium 1-amino-4-(3-amino-2-methylphenylamino)-9,10-dioxo-9,10-dihydroanthracene 2-sulfonate], the melting point (commonly the temperature of the solid-liquid transition) was over 300 °C.

`Nc1c(S(=O)(=O)[O-])cc(Nc2ccc(O)c(C(=O)O)c2)c2c1C(=O)c1ccccc1C2=O.[Na+]` [Example 25, Sodium 1-amino-4-(3-carboxy-4-hydroxyphenylamino)-9,10-dioxo-9,10-dihydroanthracene 2-sulfonate] returned a melting point of over 300 °C.

Consider `Nc1c(S(=O)(=O)[O-])cc(Nc2ccccc2S(=O)(=O)[O-])c2c1C(=O)c1ccccc1C2=O.[Na+].[Na+]` [Example 26, Disodium 1-amino-4-(2-sulfophenylamino)-9,10-dioxo-9,10-dihydroanthracene 2-sulfonate], for which the melting point was over 300 °C.

With `Nc1c(S(=O)(=O)O)cc(Nc2ccc(Nc3nc(Cl)nc(Nc4cccc(S(=O)(=O)O)c4)n3)c(S(=O)(=O)O)c2)c2c1C(=O)c1ccccc1C2=O` [Reactive Blue 2, reference compound], on P2Y12 [3], the inhibitory constant (Ki) is 1.3 µM. On P2Y12 [1], the “right-shift of the concentration-inhibition curve in GTP shift experiments” value is recorded as “did not”.
